Patent US4223137A, “Carbostyril derivatives and process for preparing the same” (Otsuka Pharmaceutical Co., Ltd., priority 1976, dated 1980)
Where “and” joins values, the source holds several entries; their conditions need not be identical. Equal entries are not always repeated. Structures can show the parent of a compound that is named as a salt. Where two headings read alike, the source gives them in different places.

Tests used:
β-adrenoreceptor [1] = assay: Heart rate (pulse) increase, i.v., anesthetized dogs; assay type: in vivo, dog (male hybrid adult dogs); conditions: for Heart Rate (HR) ED25 beats/min, Compound: pulse increase; for Heart Rate (HR) Relative Potency: ED25 compared to isoproterenol as standard compound
Experimental: (§1) The stimulating activity of the compounds of this invention on β-adrenoreceptor was determined as follows: Male hydrid adult dogs, weighing 10 to 15 kg, were anesthesized with sodium pentobartital administered intravenously at a level of 30 mg/kg of body weight. Each of the anesthesized dogs was secured on its back and a cannula was inserted into the trachea.
(§2) In the above procedure, histamine was employed as a bronchoconstrictor at a dosage level of 10 μg/kg of body weight, and an aqueous solution containing each of the test compounds and controls shown in Table 1 below was then administered to each of the anesthesized dogs through the femoral vein at the various dosage levels as shown in Table 1 below 1 minute before the administration of the histamine. Sodium pentobartital was infused during the procedure at a dosage level of 4 mg/kg of body weight/hr using an automatic injector in order to inhibit spontaneous respiration and to maintain the anesthetic condition constant over the test period.
(§3) ED50 values were calculated using a Dose Response curve. At the same time the pulse was measured through a transducer and the value was recorded on a polygraph.

β2-receptor = assay: Separation of bronchial resistance effect from heart rate effect (β2 selectivity), anesthetized dogs; assay type: in vivo, dog (male hybrid adult dogs); conditions: i.v.
Experimental: (§4) The stimulating activity of the compounds of this invention on β-adrenoreceptor was determined as follows: Male hydrid adult dogs, weighing 10 to 15 kg, were anesthesized with sodium pentobartital administered intravenously at a level of 30 mg/kg of body weight. Each of the anesthesized dogs was secured on its back and a cannula was inserted into the trachea. Artificial respiration was conducted using a device according to the Konzett-Rossler method (Konzett H. & Rossler R., "Versuchsanordnug zu Untersuchungen an der Bronchial Moskolatur", Arch. Exp. Path., Pharmack, 195, 71-74, 27-40 (1940). The volume of the air which overflowed at the time of inhalation was measured through a pneumotachometer to determine the bronchial resistance and the values obtained were recorded on a polygraph.
as §2, §3

β-adrenoreceptor [2] = biological target: T1, β-adrenoreceptor (Canis lupus familiaris, UniProt P54833); assay: Inhibition of histamine-induced bronchial resistance increase (bronchospasm), i.v., Konzett-Rossler method, anesthetized dogs; assay type: in vivo, dog (male hybrid adult dogs); conditions: for Bronchial Resistance (BR) Relative Potency: ED50 compared to isoproterenol as standard compound; for ED50: dog, iv
T1 construct: from tissue; host or cells: airways of anesthetized dogs, in vivo
Experimental: as §1, §2, §3

[3] = Acute toxicity by intravenous administration; conditions: rat, in vivo, i.v., male rats (dd strain, 18 to 22 g), fasted 12 hours, read-out: LD50 (50% lethal dose)
Experimental: Further, the acute toxicity by intravenous administration was determined with respect to the test compounds shown in Table 2 below using 5 to 6 groups each containing 10 male rats (dd strain; body weight: 18 to 22 g) which had been fasted for 12 hours prior to the test. The LD50 (50% lethal dose) results are as follows.

β-adrenoreceptor [4] = assay: Persistence (duration) of inhibition of histamine-induced bronchospasm, anesthetized dogs; assay type: in vivo, dog; conditions: FIGURE, i.v. 1 μg/kg, versus Compound (2)
Experimental: as §4, with “[…],” for “Pharmack,”, “polygraph. […] Sodium pentobartital was infused during the procedure at a dosage level of 4 mg/kg of body weight/hr using an automatic injector in order to inhibit spontaneous respiration and to maintain the anesthetic condition constant over the test period. The persistance time was determined by administering to a subject a test compound in such a dose that a histamine-induced bronchospasm is inhibited completely (100%), in the same manner as described above and observing the persistance of the activity of the test compound with the lapse of time.” for “polygraph.”

[5] = read-out: Bronchial Resistance (BR) ED50, Compound
[6] = i.v. 1 minute before histamine 10 μg/kg, anesthetized dogs, read-out: Bronchial Resistance (BR) ED50, Compound

T1 sequence (P54833 whole entry): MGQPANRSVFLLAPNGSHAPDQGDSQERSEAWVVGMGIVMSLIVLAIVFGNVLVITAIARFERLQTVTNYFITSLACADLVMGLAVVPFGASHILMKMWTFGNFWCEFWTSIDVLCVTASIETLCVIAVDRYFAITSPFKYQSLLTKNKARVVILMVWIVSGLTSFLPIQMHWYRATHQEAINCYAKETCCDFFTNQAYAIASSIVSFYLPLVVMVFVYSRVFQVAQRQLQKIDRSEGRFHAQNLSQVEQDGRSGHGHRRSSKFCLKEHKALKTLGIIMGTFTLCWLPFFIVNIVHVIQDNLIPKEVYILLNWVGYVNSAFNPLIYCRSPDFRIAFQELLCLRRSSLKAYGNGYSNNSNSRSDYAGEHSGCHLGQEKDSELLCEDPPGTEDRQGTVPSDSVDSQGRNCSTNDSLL

Row | SMILES | Heart Rate (HR) ED25 beats/min, Compound (β-adrenoreceptor [1]; i.v., anesthetized dogs) [µg/kg] | Heart Rate (HR) Relative Potency (β-adrenoreceptor [1]) | Separation Ratio HR(Relative Potency)/BR(Relative Potency) (β2-receptor) | Bronchial Resistance (BR) Relative Potency (β-adrenoreceptor [2]) | ED50 (β-adrenoreceptor [2]; [5]) [µg/kg] | LD50 [3] [µg/kg] | duration of β-stimulation activity on histamine-induced bronchospasm (β-adrenoreceptor [4]) | ED50 (β-adrenoreceptor [2]; [6]) [µg/kg] | Heart Rate (HR) ED25 beats/min, Isoproterenol (β-adrenoreceptor [1]; isoproterenol as standard compound for the compound of the same line, i.v., anesthetized dogs) | ED50 (β-adrenoreceptor [2]; read-out: Bronchial Resistance (BR) ED50, Isoproterenol, isoproterenol as standard compound for the compound of the same line, i.v., anesthetized dogs) [µg/kg] | Bronchial Resistance (BR) ED50, Compound (β-adrenoreceptor [2]; i.v. 1 minute before histamine 10 μg/kg, anesthetized dogs) [µg/kg]
1 | CCC(NC(C)C)C(OC(C)=O)c1ccc(OC(C)=O)c2[nH]c(=O)ccc12.Cl (stereo not drawn) [(3), 8-acetoxy-5-(1-acetoxy-2-isopropylaminobutyl)carbostyril hydrochloride] | 4.5 | 64.4 | 11.0 | 5.85 | 0.82 | 112000 | exhibit a long-lasting β-stimulation activity on histamine-induced bronchospasm as compared with that of the comparative compound |  |  |  | 
2 | CCNC(CC)C(O)c1ccc(OC(=O)CC(C)C2CCCCC2)c2[nH]c(=O)ccc12.Cl (stereo not drawn) [(5), 8-(3-cyclohexylbutyryloxy)-5-(1-hydroxy-2-ethylaminobutyl)carbostyril hydrochloride] | 6.5 | 65.4 | 12.7 | 5.15 | 0.67 |  |  |  |  |  | 
3 | CCC(NC(C)C)C(O)c1ccc(OC(=O)CC(C)(C)C)c2[nH]c(=O)ccc12 (stereo not drawn) [(6)] | 3.2 | 46.1 | 13.1 | 3.52 |  | 107000 |  | 0.42 |  |  | 
4 | CCC(NC(C)C)C(O)c1ccc(OC(=O)Cc2ccccc2)c2[nH]c(=O)ccc12.Cl (stereo not drawn) [(7), 8-phenylacetoxy-5-(1-hydroxy-2-isopropylaminobutyl)carbostyril hydrochloride] | 1.39 |  |  |  | 0.17 |  |  |  |  |  | 
5 | COc1ccc(CCNCC(OC(=O)C2CC2)c2ccc(OC(=O)C3CC3)c3[nH]c(=O)ccc23)cc1OC (stereo not drawn) [(8), 8-cyclopropylcarbonyloxy)-5-[1-cyclopropylcarbonyloxy-2-(3,4-dimethoxyphenethylamino)ethyl]carbostyril hydrochloride] | 4.81 | 68.7 | 14.8 | 4.64 |  | 123000 |  | 0.51 |  |  | 
6 | CCNC(CC)C(O)c1ccc(OC(=O)c2ccc(C)cc2)c2[nH]c(=O)ccc12.Cl (stereo not drawn) [(9), 8-(4-methylbenzoyloxy)-5-(1-hydroxy-2-ethylaminobutyl)carbostyril hydrochloride] | 1.7 | 15.5 | 14.5 | 1.06 | 0.16 | 132000 |  |  |  |  | 
7 | CCC(NC(C)C)C(O)c1ccc(OC(=O)C(C)C)c2nc(OC(=O)C(C)C)ccc12.Cl (stereo not drawn) [(10), 2,8-diisobutyryloxy-5-(1-hydroxy-2-isopropylaminobutyl)quinoline hydrochloride] | 5.6 | 56.4 | 9.5 | 5.94 | 0.95 |  | exhibit a long-lasting β-stimulation activity on histamine-induced bronchospasm as compared with that of the comparative compound |  |  |  | 
8 | CCC(NCc1ccccc1)C(O)c1ccc(OC(=O)c2ccc(Cl)cc2)c2[nH]c(=O)ccc12.Cl (stereo not drawn) [(11), 8-(4-chlorobenzoyloxy)-5-(1-hydroxy-2-benzylaminobutyl)carbostyril hydrochloride] | 4.2 | 46.7 | 7.2 | 6.50 | 0.91 |  |  |  |  |  | 
9 | CCC(NC(C)C)C(OC(=O)c1ccc(C)cc1)c1ccc(OC(=O)c2ccc(C)cc2)c2c1CCC(=O)N2 (stereo not drawn) [(12), 8-(4-methylbenzoyloxy)-5-[(1-(4-methylbenzoyloxy)-2-isopropylaminobutyl]-3,4-dihydrocarbostyril hydrochloride] | 8.3 | 75.5 | 10.3 | 7.30 |  | 153000 |  | 0.73 |  |  | 
10 | CCC(NC(C)C)C(OC(=O)C1CCCCC1)c1ccc(OC(=O)c2ccc(C)cc2)c2[nH]c(=O)ccc12.Cl (stereo not drawn) [(13), 8-(4-methylbenzoyloxy)-5-(1-cyclohexylcarbonyloxy-2-isopropylaminobutyl)carbostyril hydrochloride] | 6.02 | 66.9 | 11.3 | 5.92 | 0.71 | 147000 |  |  |  |  | 
11 | CC(C)C(=O)Oc1ccc(C(O)C(C)NC(C)(C)C)c2ccc(=O)[nH]c12 (stereo not drawn) [(14), 8-isobutyryloxy-5-(1-hydroxy-2-tert-butylaminopropyl)carbostyril] | 3.86 | 48.3 | 12.3 | 3.92 |  |  |  | 0.47 |  |  | 
12 | CCNC(CC)C(O)c1ccc(O)c2[nH]c(=O)ccc12.Cl (stereo not drawn) [Compound (2), 8-hydroxy-5-(1-hydroxy-2-ethylaminobutyl)carbostyril hydrochloride, reference compound] | 3.6 | 40.0 | 11.5 | 3.47 | 0.66 |  |  |  |  |  | 
13 | CC(C)NCC(O)c1ccc(O)c(O)c1 (stereo not drawn) [Isoproterenol, reference compound] |  |  |  |  |  |  |  |  | 0.07 µg/kg and 0.10 µg/kg | 0.19 | 
14 | CC(C)(C)NCC(O)c1ccc(O)c(CO)c1 (stereo not drawn) [Salubutamol (1), Salbutamol, reference compound] | 2.8 | 45.9 | 7.52 | 6.1 |  |  |  |  |  |  | 0.52
